Drawing on a melting point compilation (Tetko et al.), this text covers melting point for 120 compounds.

`C=CCNC(=O)CN1CCNCC1`: the melting point fell in the range of 63 to 65 °C.

Compound `O=C(O)c1nc(C2CC2)n(-c2ccccc2Cl)n1` returned a melting point of 162 to 164 °C. Take `COc1ccc(CN2C(=O)NC(=O)C2=O)cc1`: the melting point fell in the range of 168 to 170 °C. With `COc1ccc(N)cc1OCC(N)=O`, the melting point was 161 to 163 °C.

`CCOc1cc(C(=O)O)cc(-c2ccccc2)c1OC` came in with a melting point of 161 to 163 °C. With `COC(=O)c1c(N)sc(C)c1-c1ccc(Cl)cc1Cl`, the melting point lay in the range of 94 to 96 °C.

In the case of `NC(CC(=O)N1CCOCC1)=NO`, the melting point was in the range of 147 to 149 °C. Compound `O=C1C=CC(=O)N1c1ccc(F)c(Cl)c1` gave a melting point of 159 to 161 °C. `Cc1csc(-c2ccc(C(=O)O)cc2)n1` displayed a melting point of 208 to 210 °C. The value for `O=C(O)Cc1occc1C(=O)O` was 204 to 206 °C; that for `CS(=O)(=O)NCc1ccc(C(=O)O)o1` was 139 to 141 °C; that for `Cc1cc(Oc2ccc(C(=O)O)cn2)ccc1C(C)C` was 122 to 124 °C. In turn, `O=C(CO)N1CCCc2ccccc21` gave a melting point of 80 to 82 °C.

In the case of `O=C(NCC1CCCNC1)c1ccccc1` (stereo not given), the melting point fell in the range of 82 to 84 °C. Regarding `Nc1cc(-c2ccc(I)cc2)[nH]n1`, the melting point lay within 186 to 188 °C. In turn, `Cc1ccsc1C(=O)Nc1ccc(O)cc1` registered a melting point of 127 to 129 °C. Consider `O=C(O)C=Cc1ccc(OCc2ccncc2)cc1`, for which the melting point fell in the range of 298 to 300 °C. As for `Nc1ccc(-c2nnco2)cc1`, the melting point was 155 to 157 °C.

In the case of `Nc1nc2c(Cl)c(Cl)ccc2s1`, the melting point fell in the range of 129 to 131 °C. `COc1c(F)ccc(F)c1C(=O)O` had a melting point of 82 to 84 °C. The value for `Cn1c(S)nnc1COc1ccc(Cl)cc1` was 118 to 120 °C; that for `N#Cc1cc(F)c(C(=O)O)c(F)c1` was 189 to 191 °C. To `CNCc1cccc(O)c1` belongs 144 to 146 °C. Turning to `Cc1ccc(S(=O)(=O)OCc2nc3ccccc3s2)cc1`, the melting point lay within 108 to 110 °C. The value for `NC(=NO)c1ccc(-c2ccccc2)cc1` was 182 to 184 °C; that for `CC1CCCC(NC(=O)CCl)C1C` (stereo not given) was 125 to 127 °C. To `O=C(O)c1cccc(Oc2ccc(Cl)c(Cl)c2)n1` belongs 138 to 140 °C; to `O=C1CCOc2c(Br)cccc21`, 62 to 64 °C; to `O=C(O)c1ccc(SC2CCOC2=O)cc1` (stereo not given), 169 to 171 °C. In turn, `O=C(O)C(Sc1ccc(F)cc1)c1ccccc1` (stereo not given) showed a melting point of 84 to 86 °C.

For `Nc1ccc2[nH]c3c(c2c1)CCCC3`, the melting point lay in the range of 174 to 176 °C.

Compound `O=[N+]([O-])c1ccc(Cl)c(S(=O)(=O)N2CCOCC2)c1` came in with a melting point of 149 to 151 °C. `Cc1sc(N)c(C(N)=O)c1C` came in with a melting point of 179 to 181 °C. The value for `CN(C)S(=O)(=O)c1ccc(Cl)c([N+](=O)[O-])c1` was 104 to 106 °C. The value for `Nc1sc2c(c1C(=O)c1cccc(Cl)c1)CCC2` was 129 to 131 °C; that for `CCc1cc(Cl)n2nc(C(=O)OC)nc2n1` was 179 to 181 °C. In the case of `CN(C)S(=O)(=O)c1ccc(Br)c(C(=O)O)c1`, the melting point fell in the range of 174 to 176 °C. The value for `CC(C)(C)NS(=O)(=O)Cc1cccc(C(=O)O)c1` was 199 to 201 °C; that for `Nc1cc(-c2ccc(F)cc2F)no1` was 110 to 112 °C. Turning to `O=C(O)CC(C(=O)O)c1ccccc1F` (stereo not given), the melting point was in the range of 169 to 171 °C.

With `COC(=O)NC(C(=O)O)C(C)C` (stereo not given), the melting point lay in the range of 83 to 85 °C. In turn, `COc1ccc(CCCC(=O)O)c(OC)c1` returned a melting point of 46 to 48 °C. In turn, `Cn1ccc2c1C(=O)NCC2` registered a melting point of 71 to 73 °C. In the case of `CCNC(=O)CCC(=O)O`, the melting point lay in the range of 84 to 86 °C. Compound `Nc1cccc(C(=O)Nc2ccccn2)c1` registered a melting point of 111 to 113 °C. In the case of `CCOC(=O)c1c(NC(=O)CCl)sc(C(=O)OC(C)(C)C)c1C`, the melting point is 168 to 170 °C. The value for `O=C(O)C1CCN(S(=O)(=O)c2ccc3c(c2)CCC3)CC1` was 170 to 172 °C; that for `CCOc1ccc(-c2cc(N)on2)cc1` was 126 to 128 °C. To `O=C(O)c1ccc(COc2ccc(F)cc2)o1` belongs 165 to 167 °C; to `NC(=O)NN=Cc1ccccc1O`, 232 to 234 °C; to `O=C1COc2c1ccc(Cl)c2Cl`, 141 to 143 °C. As for `N#Cc1ccc(S)c(Cl)c1`, the melting point was in the range of 81 to 83 °C. The compound `CC(Cl)C(=O)Nc1ccc2c(c1)OCCCO2` (stereo not given) came in with a melting point of 97 to 99 °C.

`CCc1sc(N)nc1-c1ccc(OC)cc1` came in with a melting point of 112 to 114 °C. Regarding `CN(C)c1ncnc2cc(C(=O)O)ccc12`, the melting point is 323 to 325 °C. The compound `O=Cc1cnn(-c2cccc(Cl)c2)n1` showed a melting point of 84 to 86 °C. `O=C(O)C=Cc1cn(-c2ccccc2)nc1-c1ccc2c(c1)OCCO2` displayed a melting point of 250 to 252 °C. With `CC1=NN(CC(C)C)C(=O)C1`, the melting point lay in the range of 124 to 126 °C. Compound `Cc1ccc(NS(=O)(=O)c2cccc(C(=O)O)c2)c(C)c1` had a melting point of 194 to 196 °C. In turn, `Cc1sc2ncn(CC(=O)O)c(=O)c2c1C` displayed a melting point of 229 to 231 °C. Regarding `CS(=O)(=O)c1ccc(N)c(C(=O)O)c1`, the melting point fell in the range of 239 to 241 °C. To `O=C(O)CS(=O)(=O)c1ccc(Cl)cc1` belongs 122 to 124 °C; to `Cc1sc2nc(-c3ccccc3)nc(Cl)c2c1C`, 157 to 159 °C; to `Clc1ccc2c(n1)NCC2`, 141 to 143 °C.

As to `[N-]=[N+]=NC1(c2ccc(F)cc2)CCOCC1`, the melting point lay within 63 to 65 °C. As for `Cc1ccc(OCCCC(=O)Nc2ccc(C#N)cc2)cc1`, the melting point was in the range of 126 to 128 °C.

`CC(=O)CC(=O)Nc1ccc(C(C)C)cc1` had a melting point of 68 to 70 °C.

Regarding `CN1C(=O)CCC(C(=O)O)C1c1ccccc1` (stereo not given), the melting point lay in the range of 204 to 206 °C.

Turning to `COC(=O)c1c(S)nc(=O)[nH]c1C`, the melting point was 225 to 227 °C. The compound `O=C1C(Br)CCCN1c1ccccc1Cl` (stereo not given) came in with a melting point of 108 to 110 °C.

`CN1N=C(C(N)=O)CCC1=O` came in with a melting point of 169 to 171 °C. To `O=C(O)c1ccc(OCc2ccccn2)cc1` belongs 209 to 211 °C; to `CCOC(=O)/C(C#N)=C\Nc1ccc(F)c(F)c1F`, 142 to 144 °C. The value for `Nc1nc(-c2ccccc2OC(F)F)cs1` was 73 to 75 °C. As to `Cc1cc(C(=O)O)nn1-c1ccc(F)cc1`, the melting point fell in the range of 152 to 154 °C. Regarding `C=CC(=O)NC(=O)NC12CC3CC(CC(C3)C1)C2`, the melting point fell in the range of 211 to 213 °C. In turn, `Cn1ccc2ccnc(Cl)c21` returned a melting point of 57 to 59 °C. Compound `FC(F)(F)c1nc(Cl)c2sccc2n1` displayed a melting point of 95 to 97 °C. The value for `N#Cc1cc2c([nH]c1=O)CCC(c1ccccc1)C2` (stereo not given) was 279 to 281 °C. To `O=C(O)C1CCCN(C(=O)c2cccc3ccccc23)C1` (stereo not given) belongs 255 to 257 °C; to `Nc1ccc(-c2csc(N)n2)cc1`, 178 to 180 °C. `COCCc1ccc(S(=O)(=O)Cl)cc1`: the melting point is 40 to 42 °C. For `O=C(O)c1cc(-c2ccc(-c3ccccc3)cc2)nc2ccccc12`, the melting point lay within 289 to 291 °C. With `O=[N+]([O-])c1cccc(-c2cn[nH]c2)c1`, the melting point was 154 to 156 °C. To `CCCc1ccc(C(=O)CCl)cc1` belongs 30 to 32 °C. Take `O=C(c1cccc(F)c1)N1CCCNCC1`: the melting point was 49 to 51 °C. Compound `NNC(=O)C(F)(F)Oc1ccccc1` yielded a melting point of 76 to 78 °C. In turn, `CNC1CCCCNC1=O` (stereo not given) showed a melting point of 234 to 236 °C. Turning to `Sc1nnc(NCc2ccco2)s1`, the melting point lay within 124 to 126 °C. Compound `COc1ccccc1-c1ccccc1C(=O)O` yielded a melting point of 149 to 151 °C. `CCCN1C(=O)CNc2ccccc21`: the melting point was 70 to 72 °C. Turning to `O=C(O)C1(Cc2ccc(Cl)cc2)CCCC1`, the melting point lay within 71 to 73 °C. To `N#Cc1ccccc1S(N)(=O)=O` belongs 306 to 308 °C; to `Sc1nnc(-c2cccnc2)n1Cc1ccco1`, 117 to 119 °C; to `Cc1c(F)ccc2c1NC(=O)C2=O`, 139 to 141 °C. With `O=C1C(Br)CCN1C1CCOCC1` (stereo not given), the melting point was in the range of 67 to 69 °C. Consider `NCC(O)COc1ccc(C(F)(F)F)cc1` (stereo not given), for which the melting point lay in the range of 98 to 100 °C. As to `O=C(O)CCn1cnc2sccc2c1=O`, the melting point lay in the range of 165 to 167 °C.

The compound `O=C(CCl)N1CCOC1=O` displayed a melting point of 53 to 55 °C. For the compound `CC(=O)c1c(C)nn(-c2ccccc2)c1C`, the melting point is 60 to 62 °C. With `COc1ccc(-c2nc(CO)cs2)cc1`, the melting point was in the range of 74 to 76 °C. In the case of `CCC(=O)CNC(=O)CCl`, the melting point was 81 to 83 °C. As for `O=C(O)CS(=O)(=O)CCCc1ccccc1`, the melting point lay within 97 to 99 °C.

Compound `O=C(O)c1cccc(S(=O)(=O)Nc2ccc(Br)cc2)c1` displayed a melting point of 241 to 243 °C. `Fc1ccccc1-c1c[nH]c(C2CCCN2)n1` (stereo not given) came in with a melting point of 111 to 113 °C. Compound `COc1cc(C=O)c2c(c1)CC(C)O2` (stereo not given) had a melting point of 71 to 73 °C. In turn, `CCN(CC)C(=O)c1cccc(O)c1` had a melting point of 80 to 82 °C.

As for `OCc1ccc(OCC(F)(F)F)cc1`, the melting point was 64 to 66 °C.

`N#CNC1=NCCCCC1` registered a melting point of 79 to 81 °C.

Consider `Sc1ccc(Cl)cn1`, for which the melting point was 214 to 216 °C. As to `O=C(CSc1nnc(S)s1)c1ccccc1`, the melting point lay in the range of 188 to 192 °C. To `Cn1ncc([N+](=O)[O-])c1C(=O)O` belongs 159 to 161 °C; to `COc1ccc(C(=O)NC2CCS(=O)(=O)C2)cc1N` (stereo not given), 145 to 147 °C; to `CC(=O)c1cccc(N2C(=O)C=CC2=O)c1`, 104 to 106 °C.

On to `OCc1ccc(N2CCCC2)cc1`, for which the melting point lay within 61 to 63 °C. To `COc1ccc2c(c1)OCC(C(=O)O)C2` (stereo not given) belongs 152 to 154 °C; to `CC(C)(C)OC(=O)N1CC(OCC(=O)O)C1`, 93 to 95 °C. On to `Cc1cc(OC(F)F)c(C(=O)O)s1`, for which the melting point lay within 155 to 157 °C. On to `O=C(O)c1ccnc(OCCOc2cc(C(=O)O)ccn2)c1`, for which the melting point was 269 to 271 °C.

Regarding `O=C(O)c1cc(-c2ccccn2)nc2ccccc12`, the melting point was in the range of 297 to 299 °C.
